In US11389438B2 (CHDI Foundation, Inc., priority 2019, dated 2022):
Read-outs that look alike come from different tables or passages of the source.

What was measured:
[1] = target: VHL complex (VHL, Elongin B, Elongin C, Cul2, Rbx1) (Homo sapiens (Human), UniProt P40337); assay: VHL SPR assay; assay type: binding
Description: (§1) Surface Plasmon Resonance (SPR) assays have been developed to test the affinity (KD) of VHL or CRBN-based compounds to respective recombinant ligase complex/domain.
(§2) The assays are based on surface plasmon resonance (SPR), which enables to measure the changes of the local refractive index due to changes of molecular mass on a gold chip surface in the case of a binding event and in a flowing system. To detect binding between both partners, the respective E3 ligase is immobilized to the chip surface, while the test compounds are flown over the chip surface at a steady velocity. The detected changes in the RU response are indicative of the binding event and are concentration dependent.
(§3) These tags provide the anchor for the capturing process to either an NTA or Streptavidin coated chip surface (immobilization level of 3,000-5,000 RU). Because of the rather complex structure of the VHL complex, it was additionally coupled to the chip surface by amino coupling to prevent any protein loss by disruption of the complex in the flowing system.
(§4) To detect binding of compounds and extract dissociation constants KD for the tested compounds to the immobilized E3 ligase, concentration response curves of the compounds were recorded. Compounds were usually tested in 10-pt dilutions up to 20 μM final concentration in assay buffer and were flown over the chip at 30 μL/min. The contact time for each cycle includes 90 s for association and 200 s for dissociation of compounds.
(§5) In the following tables, the Kd values are indicated as: +++, <100 nM; ++, 100-500 nM, +, >500 nM.

[2] = target: pre-formed polyQ46 or Exon1-polyQ46 aggregates (mHTT) (Homo sapiens, UniProt P42858, INS38QQQQQQQQQQQQQQQQQQQQQQQQQ); assay: Q46_RBA radioligand binding assay (displacement of [3H]-radioligand)
Protocol: Binding of W to mHTT. A radioligand binding assay was developed to screen for compounds which can efficiently displace a radioligand detailed elsewhere (see, e.g., U.S. Patent Publication No. from US 2017/0292150) pre-formed polyQ46 or Exon1-polyQ46 aggregates (Q46_RBA).
Aggregation of polyQ peptides is initiated by cleavage of the tag from a GST-polyQ46 or from a MBP-Exon1-polyQ46 fusion protein. The pre-formed aggregates are then incubated with compounds which compete with the [^3H]-radiolabelled ligand for binding to the aggregates. The readout is a scintillation based MicroBeta measurement of radioligand bound to aggregates. The activity was indicated as: +++, <100 nM; ++, 100-500 nM, +, >500 nM.

[3] = target: mouse CRBN thalidomide binding domain (mCRBN-TBD) (Mus musculus (Mouse), UniProt Q8C7D2); assay: CRBN SPR assay; conditions: immobilized mCRBN-TBD
Chain of mouse CRBN thalidomide binding domain (mCRBN-TBD) (Q8C7D2 321-429): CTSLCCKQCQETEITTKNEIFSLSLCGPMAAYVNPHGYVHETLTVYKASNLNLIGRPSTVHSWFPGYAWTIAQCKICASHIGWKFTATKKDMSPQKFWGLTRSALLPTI
Description: as §1, §2, §3, §4, §5

[4] = immobilized VHL complex, read-out: VHL SPR Kd

Chain of VHL complex (VHL, Elongin B, Elongin C, Cul2, Rbx1) (P40337 whole entry, looked up): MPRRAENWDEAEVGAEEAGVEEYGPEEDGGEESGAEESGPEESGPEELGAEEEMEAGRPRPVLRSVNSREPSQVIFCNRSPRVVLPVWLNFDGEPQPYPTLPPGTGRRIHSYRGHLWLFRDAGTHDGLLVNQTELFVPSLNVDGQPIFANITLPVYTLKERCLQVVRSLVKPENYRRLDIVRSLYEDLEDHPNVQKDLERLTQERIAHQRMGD
Chain of VHL complex (VHL, Elongin B, Elongin C, Cul2, Rbx1) (Q15370 whole entry partner, looked up): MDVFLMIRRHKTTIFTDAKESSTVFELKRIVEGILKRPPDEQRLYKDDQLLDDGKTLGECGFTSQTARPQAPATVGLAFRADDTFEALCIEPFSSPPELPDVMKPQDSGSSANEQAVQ
Chain of VHL complex (VHL, Elongin B, Elongin C, Cul2, Rbx1) (Q15369 whole entry partner, looked up): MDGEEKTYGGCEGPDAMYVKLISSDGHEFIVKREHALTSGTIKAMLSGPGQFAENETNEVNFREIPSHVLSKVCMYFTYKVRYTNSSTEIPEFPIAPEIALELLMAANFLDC
Chain of VHL complex (VHL, Elongin B, Elongin C, Cul2, Rbx1) (Q13617 whole entry partner, looked up): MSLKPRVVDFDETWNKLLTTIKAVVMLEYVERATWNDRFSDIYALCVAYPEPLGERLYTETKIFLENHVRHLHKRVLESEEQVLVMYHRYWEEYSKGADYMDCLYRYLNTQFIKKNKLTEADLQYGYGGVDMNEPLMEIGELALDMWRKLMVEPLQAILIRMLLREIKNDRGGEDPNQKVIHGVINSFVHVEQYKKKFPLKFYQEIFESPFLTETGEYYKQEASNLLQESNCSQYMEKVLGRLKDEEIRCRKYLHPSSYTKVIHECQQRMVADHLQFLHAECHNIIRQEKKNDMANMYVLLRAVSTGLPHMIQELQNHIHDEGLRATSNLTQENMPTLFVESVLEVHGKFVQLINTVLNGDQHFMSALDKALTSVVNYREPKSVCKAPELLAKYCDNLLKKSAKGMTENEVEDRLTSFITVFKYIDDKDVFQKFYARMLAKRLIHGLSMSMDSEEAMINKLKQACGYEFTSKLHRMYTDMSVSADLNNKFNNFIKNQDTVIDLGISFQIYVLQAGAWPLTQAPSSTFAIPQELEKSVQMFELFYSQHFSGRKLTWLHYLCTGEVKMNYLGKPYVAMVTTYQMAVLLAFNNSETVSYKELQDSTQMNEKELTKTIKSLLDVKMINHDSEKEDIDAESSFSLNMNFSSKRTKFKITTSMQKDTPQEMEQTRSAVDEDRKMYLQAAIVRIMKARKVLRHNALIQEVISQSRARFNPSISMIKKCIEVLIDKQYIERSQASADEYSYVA
Chain of VHL complex (VHL, Elongin B, Elongin C, Cul2, Rbx1) (P62877 whole entry partner, looked up): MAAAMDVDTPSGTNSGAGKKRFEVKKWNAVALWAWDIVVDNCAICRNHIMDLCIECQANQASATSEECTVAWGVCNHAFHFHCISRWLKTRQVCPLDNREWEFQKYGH

Structure (SMILES) | Kd [1, 4] [nM] | IC50 [2] [nM] | Kd [1] [nM] | Kd [3] [nM]
CNc1c(-c2cn3c(n2)sc2cc(OCCOCCOCC(=O)N[C@H](C(=O)N4C[C@H](O)C[C@H]4C(=O)NCc4ccc(-c5scnc5C)cc4)C(C)(C)C)ccc23)nc2cc(C#N)ccn12 [Compound 2] | 100 to 500 | < 100 | – | –
CNc1c(-c2cn3c(n2)sc2cc(OCCOCCOCCOCC(=O)N[C@H](C(=O)N4C[C@H](O)C[C@H]4C(=O)NCc4ccc(-c5scnc5C)cc4)C(C)(C)C)ccc23)nc2cc(C#N)ccn12 [Compound 3] | 100 to 500 | < 100 | – | –
Cc1ncsc1-c1ccc(CNC(=O)[C@H]2C[C@H](O)CN2C(=O)[C@@H](C(C)C)N2Cc3ccccc3C2=O)c(OCCOCCOCCOCCOc2ccc(C(=O)Nc3ccc4oc(-c5ccc(=O)n(C)n5)nc4c3)nc2)c1 [Compound 11] | > 500 | < 100 | – | –
Cc1ncsc1-c1ccc(CNC(=O)[C@@H]2C[C@@H](O)CN2C(=O)[C@H](C(C)C)N2Cc3ccccc3C2=O)c(OCCOCCOCCOCCOc2ccc(C(=O)Nc3ccc4oc(-c5ccc(=O)n(C)n5)nc4c3)nc2)c1 [Compound 20, 5-{2-[2-(2-{2-[2-({[(2S,4R)-4-Hydroxy-1-[(2S)-3-methyl-2-(1-oxo-2,3-dihydro-1H-isoindol-2-yl)butanoyl]pyrrolidin-2-yl]formamido}methyl)-5-(4-methyl-1,3-thiazol-5-yl)phenoxy]ethoxy}ethoxy)ethoxy]ethoxy}-N-[2-(1-methyl-6-oxo-1,6-dihydropyridazin-3-yl)-1,3-benzoxazol-5-yl]pyridine-2-carboxamide] | 100 to 500 | < 100 | – | –
Cc1ncsc1-c1ccc(CNC(=O)[C@@H]2C[C@@H](O)CN2C(=O)[C@@H](NC(=O)CCOCCOc2ccc(C(=O)Nc3ccc4oc(-c5ccc(=O)n(C)n5)nc4c3)nc2)C(C)(C)C)cc1 [Compound 21] | 100 to 500 | < 100 | – | –
Cc1ncsc1-c1ccc(CNC(=O)[C@@H]2C[C@@H](O)CN2C(=O)[C@@H](NC(=O)CCOCCOCCOc2ccc(C(=O)Nc3ccc4oc(-c5ccc(=O)n(C)n5)nc4c3)nc2)C(C)(C)C)cc1 [Compound 22, 5-{2-[2-(2-{[(2S)-1-[(2S,4R)-4-Hydroxy-2-({[4-(4-methyl-1,3-thiazol-5-yl)phenyl]methyl}carbamoyl)pyrrolidin-1-yl]-3,3-dimethyl-1-oxobutan-2-yl]carbamoyl}ethoxy)ethoxy]ethoxy}-N-[2-(1-methyl-6-oxo-1,6-dihydropyridazin-3-yl)-1,3-benzoxazol-5-yl]pyridine-2-carboxamide] | < 100 | < 100 | – | –
Cc1ncsc1-c1ccc(CNC(=O)[C@@H]2C[C@@H](O)CN2C(=O)[C@@H](NC(=O)CCOCCOCCOCCOc2ccc(C(=O)Nc3ccc4oc(-c5ccc(=O)n(C)n5)nc4c3)nc2)C(C)(C)C)cc1 [Compound 23] | < 100 | < 100 | – | –
Cc1ncsc1-c1ccc(CNC(=O)[C@@H]2C[C@@H](O)CN2C(=O)[C@@H](NC(=O)CCOCCOCCOCCOCCOCCOc2ccc(C(=O)Nc3ccc4oc(-c5ccc(=O)n(C)n5)nc4c3)nc2)C(C)(C)C)cc1 [Compound 24] | < 100 | < 100 | – | –
Cc1ncsc1-c1ccc(CNC(=O)[C@@H]2C[C@@H](O)CN2C(=O)[C@@H](NC(=O)CCOCCOCCOCCOCCOCCOCCOCCOCCOc2ccc(C(=O)Nc3ccc4oc(-c5ccc(=O)n(C)n5)nc4c3)nc2)C(C)(C)C)cc1 [Compound 25] | – | 100 to 500 | 100 to 500 | –
CN1C(=O)CCC(N2C(=O)c3cccc(NCCOCCOCCOc4ccc(COc5ccc6oc(-c7ccc(=O)n(C)n7)nc6c5)nc4)c3C2=O)C1=O (centres unmarked) [Compound 30] | – | < 100 | – | > 500
Cc1ncsc1-c1ccc(CNC(=O)[C@@H]2C[C@@H](O)CN2C(=O)[C@H](C(C)C)N2Cc3ccccc3C2=O)c(OCCOc2ccc(COc3ccc4oc(-c5ccc(=O)n(C)n5)nc4c3)nc2)c1 [Compound 43, (2S,4R)-4-hydroxy-1-((S)-3-methyl-2-(1-oxoisoindolin-2-yl)butan-oyl)-N-(2-(2-((6-(((2-(1-methyl-6-oxo-1,6-dihydropyridazin-3-yl)benzo[d]oxazol-5-yl)oxy)methyl)pyridin-3-yl)oxy)ethoxy)-4-(4-methylthiazol-5-yl)benzyl)pyrrolidine-2-carboxamide] | > 500 | < 100 | – | –
Cc1ncsc1-c1ccc(CNC(=O)[C@@H]2C[C@@H](O)CN2C(=O)[C@H](C(C)C)N2Cc3ccccc3C2=O)c(OCCOCCOc2ccc(COc3ccc4oc(-c5ccc(=O)n(C)n5)nc4c3)nc2)c1 [Compound 44] | > 500 | 100 to 500 | – | –
Cc1ncsc1-c1ccc(CNC(=O)[C@@H]2C[C@@H](O)CN2C(=O)[C@H](C(C)C)N2Cc3ccccc3C2=O)c(OCCOCCOCCOc2ccc(COc3ccc4oc(-c5ccc(=O)n(C)n5)nc4c3)nc2)c1 [Compound 45] | > 500 | 100 to 500 | – | –
Cc1ncsc1-c1ccc(CNC(=O)[C@@H]2C[C@@H](O)CN2C(=O)[C@H](C(C)C)N2Cc3ccccc3C2=O)c(OCCOCCOCCOCCOc2ccc(COc3ccc4oc(-c5ccc(=O)n(C)n5)nc4c3)nc2)c1 [Compound 46] | > 500 | 101 | – | –
Cc1ncsc1-c1ccc(CNC(=O)[C@@H]2C[C@@H](O)CN2C(=O)[C@@H](NC(=O)COCCOCCOc2ccc(COc3ccc4oc(-c5ccc(=O)n(C)n5)nc4c3)nc2)C(C)(C)C)cc1 [Compound 47, (2S,4R)-1-[(2S)-3,3-Dimethyl-2-{2-[2-(2-{[6-({[2-(1-methyl-6-oxo-1,6-dihydropyridazin-3-yl)-1,3-benzoxazol-5-yl]oxy}methyl)pyridin-3-yl]oxy}ethoxy)ethoxy]acetamido}butanoyl]-4-hydroxy-N-{[4-(4-methyl-1,3-thiazol-5-yl)phenyl]methyl}pyrrolidine-2-carboxamide] | 100 to 500 | < 100 | – | –
Cc1ncsc1-c1ccc(CNC(=O)[C@H]2C[C@H](O)CN2C(=O)[C@H](NC(=O)COCCOCCOc2ccc(COc3ccc4oc(-c5ccc(=O)n(C)n5)nc4c3)nc2)C(C)(C)C)cc1 [Compound 48] | > 500 | < 100 | – | –
Cc1ncsc1-c1ccc(CNC(=O)[C@@H]2C[C@@H](O)CN2C(=O)[C@@H](NC(=O)COCCOCCOCCOc2ccc(COc3ccc4oc(N5CCNCC5)nc4c3)nc2)C(C)(C)C)cc1 [Compound 53, (2S,4R)-1-((S)-2-(tert-butyl)-4-oxo-14-((6-(((2-(piperazin-1-yl)benzo-[d]oxazol-5-yl)oxy)methyl)pyridin-3-yl)oxy)-6,9,12-trioxa-3-azatetradecanoyl)-4-hydroxy-N-(4-(4-methylthiazol-5-yl)benzyl)pyrrolidine-2-carboxamide] | 100 to 500 | > 500 | – | –
Cc1ncsc1-c1ccc(CNC(=O)[C@@H]2C[C@@H](O)CN2C(=O)[C@@H](NC(=O)COCCOCCOCCOCCOc2ccc(COc3ccc4oc(N5CCNCC5)nc4c3)nc2)C(C)(C)C)cc1 [Compound 54] | > 500 | > 500 | – | –
COc1ccc(COc2ccc3oc(N4CCN(CCOCCOCCOCC(=O)N[C@H](C(=O)N5C[C@H](O)C[C@H]5C(=O)NCc5ccc(-c6scnc6C)cc5)C(C)(C)C)CC4)nc3c2)nc1 [Compound 55, (2S,4R)-1-((S)-2-(tert-butyl)-14-(4-(5-((5-methoxypyridin-2-yl)meth-oxy)benzo[d]oxazol-2-yl)piperazin-1-yl)-4-oxo-6,9,12-trioxa-3-azatetradecanoyl)-4-hydroxy-N-(4-(4-methylthiazol-5-yl)benzyl)pyrrolidine-2-carboxamide] | 100 to 500 | 100 to 500 | – | –
COc1ccc(COc2ccc3oc(N4CCN(CCOCCOCCOCCOCC(=O)N[C@H](C(=O)N5C[C@H](O)C[C@H]5C(=O)NCc5ccc(-c6scnc6C)cc5)C(C)(C)C)CC4)nc3c2)nc1 [Compound 56] | 100 to 500 | > 500 | – | –
Cc1ncsc1-c1ccc(CNC(=O)[C@@H]2C[C@@H](O)CN2C(=O)[C@@H](NC(=O)COCCOCCOCCOCCOc2ccc(COc3ccc4oc(N5CCn6ccnc6C5)nc4c3)nc2)C(C)(C)C)cc1 [Compound 57] | 100 to 500 | < 100 | – | –
Cc1ncsc1-c1ccc(CNC(=O)[C@@H]2C[C@@H](O)CN2C(=O)[C@@H](NC(=O)COCCOCCOCCOc2ccc(COc3ccc4oc(N5CCn6ccnc6C5)nc4c3)nc2)C(C)(C)C)cc1 [Compound 58, (2S,4R)-1-((S)-2-(tert-butyl)-14-((6-(((2-(5,6-dihydroimidazo[1,2-a]pyrazin-7(8H)-yl)benzo[d]oxazol-5-yl)oxy)methyl)pyridin-3-yl)oxy)-4-oxo-6,9,12-trioxa-3-azatetra-decan-1-oyl)-4-hydroxy-N-(4-(4-methylthiazol-5-yl)benzyl)-pyrrolidine-2-carboxamide] | > 500 | 100 to 500 | – | –
